From patent US20250223303A1, “TRICYCLIC BORONIC ACID DERIVATIVE, AND PREPARATION METHOD THEREFOR AND APPLICATION THEREOF” (priority 2021, published 2025)

How the values were obtained:
Assay type in all cases: biochemical
[1] = biological target: T1, NDM-1 (Klebsiella pneumoniae, UniProt C7C422); test: Enzyme activity test (FC5 fluorescent substrate), NDM-1; settings: enzyme 6 pM, substrate FC5 15 μM, MBL buffer
T1 construct: purchased GenScript Biotech Co., Ltd
Protocol: (§1) Compound stock solution: the compound was prepared as a 50 mM DMSO stock solution. […] After aliquoting, the compound stock solutions were stored at −20° C.
(§2) Preparation and storage of antibiotic substrate stock solution: antibiotic fluorescent substrate FC5 was synthesized internally and prepared as a 2 mM stock solution, which was stored at −20° C. after aliquoting.
(§3) Storage of β-lactamases: each […] was synthesized by GenScript Biotech Co., Ltd., and stored at −80° C. after aliquoting to avoid repeated freezing and thawing.
(§4) Preparation of enzyme activity reaction buffer: SBL buffer: PBS pH 7.4, 0.01% (v/v) Triton X-100; MBL buffer: 50 Mm HEPES in PBS pH 7.2, 1 μM ZnSO4, 1 μg/mL BSA, 0.010% v/v Triton X-100
(§5) a) The compound to be tested and buffer were taken out and warmed to room temperature.
(§6) b) Each compound was diluted with DMSO and buffer to the initial experimental concentration (Table 2), and then the compound was diluted 3-fold for a total of 10 concentrations.
(§7) c) Diluted compounds were added to wells 1 to 20 of a 384-well black plate at 2 replicate wells per concentration, 5 μL per well. 5 µL of DMSO was added to wells 21 to 24.
(§8) d) Each enzyme was diluted to the experimental concentration (Table 2) in SBL and MBL buffers, and finally 35 μL/well was added, with a total of 22 wells. 35 μL buffer was added to wells 23 to 24. Wells 21 to well 22 served as the maximum test values (Max), while wells 23 to 24 were designated as the minimum test values (Min).
(§9) e) The 384-well plate was centrifuged quickly and incubated for 10 minutes at room temperature.
(§10) f) The antibiotic substrate FC5 was diluted in buffer to the experimental concentration of each enzyme (Table 2).
(§11) g) The incubated 384-well plate was taken out and FC-5 was added to wells […]. The 384-well plate was centrifuged rapidly and promptly transferred to a microplate reader for reading.
(§12) h) The fluorescence intensity was measured at 355 nm excitation light/460 nm emission light in the microplate reader, and the fluorescence intensity was measured every three minutes for a total of 10 measurements.
(§13) Initial velocity of enzyme reaction V: Subtract the background reading (Min wells) without enzyme from each fluorescence intensity reading, and then perform on a linear regression analysis on each compound concentration group. The slope is the initial velocity of enzyme reaction (V) at each compound concentration.
(§14) Dose-effect curve and IC50 calculation of compounds: The initial velocity of enzyme reaction under the effect of each concentration of compounds was subjected to nonlinear regression fitting. The IC50 (half-maximal inhibitory concentration) of each compound was calculated using the formula […] (Vi: the initial velocity of enzyme reaction at each compound concentration; V0: initial velocity of enzyme reaction without the compound (Max wells). The software used was Graphpad prism 8.

[2] = biological target: T2, VIM-1 (Pseudomonas aeruginosa, UniProt A0A0F7KYQ8); test: Enzyme activity test (FC5 fluorescent substrate), VIM-1; settings: enzyme 70 pM, substrate FC5 10 μM
T2 construct: purchased GenScript Biotech Co., Ltd
Protocol: as §1, §2, §3, §4, §5, §6, §7, §8, §9, §10, §11, §12, §13, §14

[3] = biological target: T3, OXA-10 (Pseudomonas aeruginosa, UniProt P14489); test: Enzyme activity test (FC5 fluorescent substrate), OXA-10; settings: enzyme 350 pM, substrate FC5 50 μM
T3 construct: purchased GenScript Biotech Co., Ltd
T3 sequence (P14489 20-266): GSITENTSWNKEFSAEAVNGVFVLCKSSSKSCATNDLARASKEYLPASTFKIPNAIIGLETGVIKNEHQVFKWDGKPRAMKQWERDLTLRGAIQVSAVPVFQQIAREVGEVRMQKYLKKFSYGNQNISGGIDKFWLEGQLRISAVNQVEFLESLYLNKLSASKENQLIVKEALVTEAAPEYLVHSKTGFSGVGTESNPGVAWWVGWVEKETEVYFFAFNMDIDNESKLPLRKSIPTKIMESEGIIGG
Protocol: as §1, §2, §3, §4, §5, §6, §7, §8, §9, §10, §11, §12, §13, §14

[4] = biological target: T4, IMP-1 (Serratia marcescens, UniProt P52699); test: Enzyme activity test (FC5 fluorescent substrate), IMP-1; settings: enzyme 20 pM, substrate FC5 15 μM
T4 construct: purchased GenScript Biotech Co., Ltd
T4 sequence (P52699 19-246 limits assumed): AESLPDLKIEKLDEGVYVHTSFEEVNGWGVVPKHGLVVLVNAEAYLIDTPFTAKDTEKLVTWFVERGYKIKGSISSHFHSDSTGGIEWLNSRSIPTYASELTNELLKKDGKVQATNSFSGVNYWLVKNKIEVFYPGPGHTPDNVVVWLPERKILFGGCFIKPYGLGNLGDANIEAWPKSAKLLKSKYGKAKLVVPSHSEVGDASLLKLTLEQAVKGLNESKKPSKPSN
Protocol: as §1, §2, §3, §4, §5, §6, §7, §8, §9, §10, §11, §12, §13, §14

[5] = system: four classes of β-lactamase, A, B, C, and D; test: Enzyme activity test, summary by β-lactamase class
Protocol: as §1, §2, §3, §4, §5, §6, §7
d) Each enzyme was diluted to the experimental concentration (Table 2) in SBL and MBL buffers, and finally 35 μL/well was added, with a total of 22 wells. 35 μL buffer was added to wells 23 to 24. […]
as §11, §12
(§15) Initial velocity of enzyme reaction V: Subtract the background reading (Min wells) without enzyme from each fluorescence intensity reading, and then perform on a linear regression analysis on each compound concentration group. […]

[6] = biological target: T5, VIM-2 (Escherichia coli, UniProt Q5U7L7); test: Enzyme activity test (FC5 fluorescent substrate), VIM-2; settings: enzyme 25 pM, substrate FC5 20 μM
T5 construct: purchased GenScript Biotech Co., Ltd
Protocol: as §1, §2, §3, §4, §5, §6, §7, §8, §9, §10, §11, §12, §13, §14

[7] = biological target: T6, OXA-23 (Acinetobacter baumannii, UniProt Q9L4P2); test: Enzyme activity test (FC5 fluorescent substrate), OXA-23; settings: enzyme 650 pM, substrate FC5 50 μM
T6 construct: purchased GenScript Biotech Co., Ltd
T6 sequence (Q9L4P2 18-273): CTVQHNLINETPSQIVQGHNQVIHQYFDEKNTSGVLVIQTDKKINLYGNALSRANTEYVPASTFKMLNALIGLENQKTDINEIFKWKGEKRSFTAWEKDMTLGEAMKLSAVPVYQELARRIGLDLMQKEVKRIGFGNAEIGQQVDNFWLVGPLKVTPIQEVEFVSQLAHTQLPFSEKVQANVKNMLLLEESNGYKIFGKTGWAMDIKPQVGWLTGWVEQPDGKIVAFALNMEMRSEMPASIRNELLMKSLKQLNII
Protocol: as §1, §2, §3, §4, §5, §6, §7, §8, §9, §10, §11, §12, §13, §14

[8] = biological target: NDM-5 (Klebsiella pneumoniae, UniProt C7C422, M154L/V88L); test: Enzyme activity test (FC5 fluorescent substrate), NDM-5
NDM-5, sequence (C7C422 29-270 V88L/M154L): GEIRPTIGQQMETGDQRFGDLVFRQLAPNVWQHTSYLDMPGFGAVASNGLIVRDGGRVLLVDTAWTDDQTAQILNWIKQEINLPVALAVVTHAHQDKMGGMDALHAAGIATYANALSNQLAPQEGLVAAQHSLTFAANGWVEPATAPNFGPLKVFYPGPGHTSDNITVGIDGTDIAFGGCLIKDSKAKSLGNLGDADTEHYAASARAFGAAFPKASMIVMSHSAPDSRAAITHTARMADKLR
Protocol: as §1, §2, §3, §4, §5, §6, §7, §8
e) The 384-well plate was centrifuged quickly and incubated for 10 minutes at room temperature. […]
as §11, §12, §15, §14

[9] = biological target: Ampc (UniProt P24735); test: Enzyme activity test (FC5 fluorescent substrate), AmpC; settings: enzyme 25 pM, substrate FC5 15 μM
Protocol: as §1, §2, §3, §4, §5, §6, §7, §8, §9, §10, §11, §12, §13, §14

[10] = biological target: T7, OXA-48 (Klebsiella pneumoniae, UniProt Q6XEC0); test: Enzyme activity test (FC5 fluorescent substrate), OXA-48; settings: enzyme 650 pM, substrate FC5 125 μM
T7 construct: purchased GenScript Biotech Co., Ltd
T7 sequence (Q6XEC0 23-265 limits assumed): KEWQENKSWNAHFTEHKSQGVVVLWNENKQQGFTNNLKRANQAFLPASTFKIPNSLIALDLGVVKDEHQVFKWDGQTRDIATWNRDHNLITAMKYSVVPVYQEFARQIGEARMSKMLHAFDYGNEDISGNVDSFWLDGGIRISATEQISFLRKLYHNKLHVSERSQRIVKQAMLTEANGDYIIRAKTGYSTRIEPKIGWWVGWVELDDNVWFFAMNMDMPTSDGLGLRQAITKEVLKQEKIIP
Protocol: as §1, §2, §3, §4, §5, §6, §7, §8, §9, §10, §11, §12, §13, §14

[11] = biological target: T8, KPC-2 (Klebsiella pneumoniae, UniProt Q9F663); test: Enzyme activity test (FC5 fluorescent substrate), KPC-2; settings: enzyme 45 pM, substrate FC5 25 μM
T8 construct: purchased GenScript Biotech Co., Ltd
T8 sequence (Q9F663 25-293 limits assumed): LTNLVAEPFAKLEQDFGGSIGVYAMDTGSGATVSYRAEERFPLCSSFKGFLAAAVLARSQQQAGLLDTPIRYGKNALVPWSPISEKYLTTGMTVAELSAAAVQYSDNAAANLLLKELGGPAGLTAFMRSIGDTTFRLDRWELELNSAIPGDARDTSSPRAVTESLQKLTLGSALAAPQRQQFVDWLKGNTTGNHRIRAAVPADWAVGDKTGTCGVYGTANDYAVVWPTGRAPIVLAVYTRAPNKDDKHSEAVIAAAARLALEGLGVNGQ
Protocol: as §1, §2, §3, §4, §5, §6, §7, §8, §9, §10, §11, §12, §13, §14

[12] = biological target: T9, CTX-M-15 (Escherichia coli, UniProt Q9EXV5); test: Enzyme activity test (FC5 fluorescent substrate), CTX-M-15; settings: enzyme 45 pM, substrate FC5 50 μM
T9 construct: purchased GenScript Biotech Co., Ltd
T9 sequence (Q9EXV5 entry or part of it): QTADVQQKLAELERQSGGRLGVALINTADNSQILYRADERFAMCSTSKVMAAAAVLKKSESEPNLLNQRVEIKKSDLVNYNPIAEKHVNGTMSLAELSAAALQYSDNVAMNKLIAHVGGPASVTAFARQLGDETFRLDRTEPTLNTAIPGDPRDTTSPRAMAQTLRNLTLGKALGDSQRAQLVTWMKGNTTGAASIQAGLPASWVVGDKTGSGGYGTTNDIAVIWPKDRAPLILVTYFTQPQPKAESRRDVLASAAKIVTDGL
Protocol: as §1, §2, §3, §4, §5, §6, §7, §8, §9, §10, §11, §12, §13, §14

T1 sequence (C7C422 29-270 limits assumed): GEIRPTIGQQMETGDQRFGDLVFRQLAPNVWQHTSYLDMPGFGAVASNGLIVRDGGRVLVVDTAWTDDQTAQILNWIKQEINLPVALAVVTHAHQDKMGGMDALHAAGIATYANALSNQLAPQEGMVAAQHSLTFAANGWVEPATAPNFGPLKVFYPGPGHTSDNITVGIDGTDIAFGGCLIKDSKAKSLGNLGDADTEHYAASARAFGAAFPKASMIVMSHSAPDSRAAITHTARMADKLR

Row | SMILES | IC50 [1] | IC50 [2] | IC50 [3] | IC50 [4] | activity against class A and class C serine β-lactamases (SBL) ([5]; class A and class C SBL) | inhibitory effect on class B metal-zinc ion β-lactamase (MBL) ([5]; class B MBL) | inhibitory activity against the class D serine β-lactamase ([5]; class D SBL) | IC50 [6] | IC50 [7] | IC50 [8] | IC50 [9] | IC50 [10] | IC50 [11] | IC50 [12]
1 | NC(=O)[C@@H]1CC[C@@H]2CN1C(=O)N2OS(=O)(=O)O [Avibactam, reference compound] | > 10000 nM | > 10000 nM | 5760 nM | > 10000 nM | good activity | no inhibitory effect | low inhibitory activity | > 10000 nM | – | – | – | – | – | –
2 | CC(C)Sc1ccc2c(c1C(=O)O)OB(O)[C@@H]1C[C@H]21 [Compound 2] | 1.6 nM | 0.1 nM | 6.8 nM | < 5.1 nM | – | – | – | 0.1 nM | 0.6 nM | 2.9 nM | 42.7 nM | 0.4 nM | 3.3 nM | 3.2 nM
3 | O=C(O)c1c(S[C@H]2CCOC2)ccc2c1OB(O)[C@@H]1C[C@H]21 [Compound 4] | 1.9 nM | < 0.05 nM | 3.7 nM | < 5.1 nM | – | – | – | < 0.05 nM | 1.3 nM | 2.3 nM | 33.8 nM | 0.07 nM | 1.5 nM | 1.1 nM
4 | CN1CC(CCSc2ccc3c(c2C(=O)O)OB(O)[C@@H]2C[C@H]32)C1 [Compound 24-a] | 19.7 nM | 7.7 nM | 39.4 nM | < 5.1 nM | – | – | – | 6 nM | 1.4 nM | 14.8 nM | 63.8 nM | 1 nM | 3.4 nM | 3.1 nM
